Experiments:
Type in all cases: in vivo, human
[1] = test system: men suffering from moderate to severe LUTS secondary to BPH; assay: randomized, double-blind, placebo-controlled, parallel-group, dose-escalation study, once a day dosing: efficacy in LUTS secondary to BPH
Procedure: (§1) The efficacy and safety of Compound (I) administered once a day for LUTS secondary to BPH in male humans was tested. In particular, the efficacy and safety of Compound (I) dosed once a day was assessed in men suffering from moderate to severe LUTS secondary to BPH in a randomized, double-blind, placebo-controlled, parallel-group, dose-escalation study. Patients were treated with placebo for four weeks (single blind) to evaluate treatment compliance and establish baseline International Prostate Symptom Score (IPSS) and uroflowmetry values. After stratification by baseline IPSS (13-19, moderate LUTS; 20-35, severe LUTS), geographic region, and prior α-blocker therapy, 281 men were randomly assigned to two groups: (1) Compound (I) (5 mg for 6 weeks followed by dose escalation to 20 mg for 6 weeks) or (2) placebo (12 weeks). The primary efficacy end point was change in IPSS at 6 and 12 weeks. Secondary efficacy endpoints included changes in IPSS Quality of Life (QoL) index, BPH Impact Index (BII), uroflowmetry values, and a Global Assessment Question (LUTS GAQ) (Has the treatment you have been taking since your last visit improved your urinary symptoms?). Responses to Compound (I) 5 mg (6 weeks) or Compound (I) 5 mg followed by 20 mg (5/20 mg; 12 weeks total) were compared with placebo using ANCOVA (IPSS, BII, uroflowmetry values) and logistic linear regression (LUTS GAQ) models.

[2] = test system: men with LUTS/BPH who were sexually active and also had erectile dysfunction; assay: same clinical study: erectile function (IIEF EF domain) in the subset with erectile dysfunction; conditions: for increase in International Index of Erectile Function (IIEF) EF domain score: LS Means, p<0.001
Procedure: The efficacy and safety of Compound (I) administered once a day for LUTS secondary to BPH in male humans was tested. In particular, the efficacy and safety of Compound (I) dosed once a day was assessed in men suffering from moderate to severe LUTS secondary to BPH in a randomized, double-blind, placebo-controlled, parallel-group, dose-escalation study.
as §1, with “Patients” for “The efficacy and safety of Compound (I) administered once a day for LUTS secondary to BPH in male humans was tested. In particular, the efficacy and safety of Compound (I) dosed once a day was assessed in men suffering from moderate to severe LUTS secondary to BPH in a randomized, double-blind, placebo-controlled, parallel-group, dose-escalation study. Patients”
At 6 weeks (5 mg) and 12 weeks (5/20 mg) Compound (I) improved change from baseline scores for IPSS, IPSS QoL, BII, and LUTS GAQ compared with placebo. Peak flow rate (Qmax) changes were similar in placebo and Compound (I) treatment groups.

[3] = test system: men suffering from moderate to severe LUTS secondary to BPH; assay: same clinical study: safety / tolerability of once a day dosing; conditions: dosed once a day, 5 mg then 20 mg
Procedure: as §1

[4] = at 6 weeks (5 mg) and 12 weeks (5/20 mg), once a day, men

SMILES: CN1CC(=O)N2[C@H](c3ccc4c(c3)OCO4)c3[nH]c4ccccc4c3C[C@@H]2C1=O [Compound (I), (6R,12aR)-2,3,6,7,12,12a-hexahydro-2-methyl-6-(3,4-methylenedioxyphenyl)pyrazino[2′,1′:6:1]pyrido[3,4-b]indole-1,4-dione]
- LUTS GAQ compared with placebo [1, 4]: improved
- change from baseline score for BII compared with placebo [1, 4]: improved
- change from baseline score for IPSS QoL compared with placebo [1, 4]: improved
- change from baseline score for IPSS compared with placebo [1, 4]: improved
- efficacy in the treatment of LUTS secondary to BPH ([1]; dosed once a day, summary): statistically significant and clinically meaningful efficacy
- Peak flow rate (Qmax) changes versus placebo ([1]; uroflowmetry, placebo and Compound (I) treatment groups): similar
- increase in International Index of Erectile Function (IIEF) EF domain score ([2]; 5 mg once a day, 6 weeks, vs. 0.6 placebo): 6.0
- increase in International Index of Erectile Function (IIEF) EF domain score ([2]; 5/20 mg once a day, 12 weeks total, vs. 1.4 placebo): 7.7
- erectile function in men with both LUTS and MED ([2]; dosed once a day, summary): improved erectile function
- tolerability [3]: well tolerated

Source: US20070093493A1, “Treatment of benign prostatic hypertrophy and lower urinary tract symptoms” (LILLY ICOS LLC, priority 2005, published 2007)
